According to patent publication US20250314656A1, “GENETICALLY ENCODED FLUORESCENT INDICATOR OF D-2-HYDROXYGLUTARATE” (priority 2024, published 2025):
Like-named read-outs stand apart in the source and are kept apart here.

Experiments:
[1] = molecular target: D2HGlo (Variant 2, SEQ ID NO: 4; Variant 2 truncated DhdR SEQ ID NO: 2, two residues removed from each terminus, between ECFP and cpVenus173) (Achromobacter denitrificans, UniProt A0ABZ3FXY3); format: binding, Achromobacter denitrificans NBRC 15125; conditions: concentrations up to 100 μM
[2] = test system: IDH1 wildtype U87MG cells; experiment: D-2-HG concentration in cell culture supernatant measured with purified D2HGlo, wildtype cells; format: cell-based, human
Procedure: (§1) Statistical analysis was performed using a one-way ANOVA test with post hoc Tukey (**, P<0.01; *, P<0.05). […] Statistical analysis was performed using a one-way ANOVA test with post hoc Tukey (*, P<0.05);
Both cell lines were left untreated or exposed to AG-120 (3 μM) for 48 hours prior to measurements. (B) Titration of purified D2HGlo with increasing concentrations of D-2-HG (100 nM-1 mM) spiked into human serum. […] (D) Titration of purified D2HGlo with increasing concentrations of D-2-HG (100 nM-1 mM) spiked into human urine. […] (F) Titration of purified D2HGlo with increasing concentrations of D-2-HG (100 nM-1 mM) spiked into aCSF.
Cell Culture Supernatant: U87MG IDH1 wildtype and mutant cells were plated at 60% confluence in 6-well plates. For some experiments, AG-120 in DMSO (3 μM), Glutaminase inhibitor (1 μM), or 2-DG (10 mM) was added to the cell culture media before plating the cells. For all conditions and cell lines, the cell culture supernatant was collected after 48 hours of incubation at 37° C. 10 μL of cell culture media was mixed with 90 μL of purified D2HGlo (5 μM), and the FRET ratios were collected. D-2-HG levels were estimated by using the titration curve as a calibration curve and converting the FRET ratios of unknowns into concentrations. Biological Fluids: Urine and serum were collected from three healthy donors while aCSF was purchased (Tocris Bioscience).

2-HG = conditions: newly diagnosed and advanced cancer; cited from earlier work
[3] = test system: IDH1 wildtype U87MG cells; experiment: Live-cell D2HGlo FRET ratio after inhibitor treatment, wildtype cells; format: cell-based, human
Procedure: (A) Left: Representative image of a wild-type IDH1 U87MG cell expressing Cyto-D2HGlo. Scale bar is 25 μm. […] (B) Left: Representative image of a wild-type IDH1 U87 clel cell expressing Nuc-D2HGlo. Scale bar is 25 μm. […] (C) Left: Representative image of a wild-type IDH1 U87 cell expressing Mito-D2HGlo. Scale bar is 25 μm.
as §1
Fluorescence Live-Cell Imaging.

[4] = test system: IDH1 wildtype U87MG cells; experiment: FRET imaging of D2HGlo in IDH1 wildtype U87MG cells; format: cell-based, human; conditions: Compound 968 1 μM, approx. 5.5 minutes
Procedure: . […] . This evidence further supports the specificity of D2HGlo to endogenous D-2-HG in situ. […] . […] .
The inventors utilized the glutaminase C inhibitor Compound 968 and 2-Deoxy-D-glucose (2-DG), an inhibitor of glycolysis. […] . Cell Culture and Transfection. […] Cells were transfected 24 hours after plating with 1.0 μg D2HGlo constructs and 3.0 μL Trans-IT®-LT1 transfection reagent (Mirus Bio, Madison, WI). The cells were allowed to express for 48 hours before imaging.
Fluorescence Live-Cell Imaging. […] The standard imaging parametersD2HGlo sensors were: 457 excited at 458 nm laser line and 482 nm and 531 nm and the fluorescent signal was collected using a BA 480-495 emission filter (ECFP) and a BA 535-565 emission filter (FRET). The FRET ratio was determined by dividing the FRET signal by the ECFP signal. […] . The maximum FRET ratio was determined for the entire time-course and normalized to the baseline FRET ratio. […] A region of interest was drawn on each cell, and the average FRET ratio within each ROI was determined. In some sets of experiments, cells were treated with AG-120 (3 μM) for 48 hours prior to FRET ratio collection. Alternatively, glutaminase inhibitor (1 μM), or 2-DG (10 mM) were added to imaging wells after collecting baseline FRET values for 30 seconds.

[5] = several freeze-thaw cycles or exposure to excess heat; cited from earlier work

O=C(O)CC(O)C(=O)O (racemic) [Malate, sodium hydrogen DL-malate]
response of D2HGlo (FRET ratio) to metabolite [1]: does not respond

N#Cc1ccnc(N2C(=O)CC[C@H]2C(=O)N(c2cncc(F)c2)[C@H](C(=O)NC2CC(F)(F)C2)c2ccccc2Cl)c1 [AG-120]
D-2-HG concentration in supernatant ([2]; AG-120 3 μM for 48 hours): 2.79 ± 0.41 µM | effect on 2-HG levels in patients (2-HG): reduction of 2-HG to levels similar to those seen in healthy populations | effect on D-2-HG levels ([3]; AG-120 3 μM for 48 hours): had no effect on D-2-HG levels

O=C(O)CC(O)(CC(=O)O)C(=O)O [Citrate]
response of D2HGlo (FRET ratio) to metabolite [1]: does not respond

CN(C)c1ccc(C2Nc3ccc4ccccc4c3C3=C2C(=O)CC(C)(C)C3)cc1Br (stereo not shown) [Compound 968]
D-2-HG accumulation in supernatant ([2]; Compound 968 1 μM for 48 hours): nor did it affect D-2-HG accumulation in cell culture supernatants | acute change of FRET ratio (Cyto-D2HGlo) [4]: did not elicit any changes in FRET ratio

N[C@@H](CCC(=O)O)C(=O)O [Glutamate, L-glutamic acid]
response of D2HGlo (FRET ratio) to metabolite [1]: does not respond | response of D2HGlo (FRET ratio) to metabolite ([1]; listed as glutamate): did not respond

C[C@H](O)C(=O)O [Lactate, sodium L-lactate]
response of D2HGlo (FRET ratio) to metabolite [1]: does not respond | response of D2HGlo (FRET ratio) to metabolite ([1]; listed as lactate): did not respond

O=C(O)CC(=O)C(=O)O [Oxaloacetate, Oxaloacetic acid]
response of D2HGlo (FRET ratio) to metabolite [1]: does not respond

O=C(O)CCC(=O)O [Succinate, succinic acid]
response of D2HGlo (FRET ratio) to metabolite [1]: does not respond

O=CC[C@@H](O)[C@H](O)[C@H](O)CO [Variant 2-DG, 2-Deoxy-D-glucose]
acute change of Cyto-D2HGlo FRET ratio ([3]; 2-DG 10 mM, approximately 5.5 minutes): unaffected

O=C(O)CC[C@@H](O)C(=O)O [Variant D-2-HG, D-2-hydroxyglutarate]
stability in biological fluids [5]: remains stable

O=C(O)CCC(=O)C(=O)O [α-ketoglutarate, α-ketoglutaric acid]
response of D2HGlo (FRET ratio) to metabolite [1]: does not respond
